Measured values published in patent US10363239B2, “Method for inhibiting growth of cancer cells” (Pain Therapeutics, Inc., priority 2013, dated 2019).
Read-outs that look alike come from different tables or passages of the source.

Assays:
[1] = biological target: FLNA pentapeptide of SEQ ID NO: 1 (Bn-VAKGL) (Homo sapiens, UniProt P21333); assay: FITC-NLX-based FLNA screening assay (inhibition of FITC-naloxone binding to Bn-VAKGL on streptavidin plates); settings: for inhibition at 0.01 µM / inhibition at 0.1 µM / inhibition at 1 µM: 10 nM FITC-NLX
mu opiate receptor (MOR) = assay: MOR agonist activity using [35S]GTPγS binding assay in striatal membranes; assay type: biochemical
In short: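 Striatal membranes (200 μg) were preincubated 5 min at 30 °C in HEPES pH 7.5 with 100 mM NaCl, 1 mM MgCl2 and 0.5 nM [35S]GTPγS, then 5 min more with 0.1–10 μM compound. Gαo was immunoprecipitated and bound radioactivity counted by scintillation.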

[2] = FLNA-binding compound 0.01 μM, read-out: Percent Binding Inhibition
[3] = FLNA-binding compound 0.1 μM, read-out: Percent Binding Inhibition
[4] = FLNA-binding compound 1 μM, read-out: Percent Binding Inhibition
[5] = Series C-2, 0.1 μM compound, relative to DAMGO
[6] = Series C-2, 0.1 μM compound, [35S]GTPγS binding to Gαo, striatal membranes
[7] = Series C-2, 1 μM compound + 1 μM β-FNA
[8] = Series C-2, 1 μM compound + β-FNA, relative to DAMGO + BFNA
[9] = Series C-2, 1 μM compound, relative to DAMGO
[10] = Series C-2, 1 μM compound, [35S]GTPγS binding to Gαo, striatal membranes
[11] = read-out: Percent Binding Inhibition, FLNA-binding compound 0.01 μM
[12] = read-out: Percent Binding Inhibition, FLNA-binding compound 0.1 μM
[13] = read-out: Percent Binding Inhibition, FLNA-binding compound 1 μM
[14] = Series B, 0.1 μM compound, relative to DAMGO
[15] = Series B, 0.1 μM compound, [35S]GTPγS binding to Gαo, striatal membranes
[16] = Series B, 1 μM compound + 1 μM β-FNA
[17] = Series B, 1 μM compound + β-FNA, relative to DAMGO + BFNA
[18] = Series B, 1 μM compound, relative to DAMGO
[19] = Series B, 1 μM compound, [35S]GTPγS binding to Gαo, striatal membranes

`C=CCN1CCC2(CC1)OCCN2S(=O)(=O)c1ccc(C(C)=O)cc1` [Compound C0096M] gave an inhibition at 0.01 µM [1, 2] of 43%, an inhibition at 0.1 µM [1, 3] of 48.3% and an inhibition at 1 µM [1, 4] of 55%. The “% DAMGO (0.1 μM)” value (mu opiate receptor (MOR); [5]) was 105.9%, the “MOR agonist activity, percent [35S]GTPγS binding at the stated compound concentration” value (shortened to “MOR agonist activity, percent”) (mu opiate receptor (MOR); [6]) was 186.4% and the “MOR agonist activity, percent” value (mu opiate receptor (MOR); [7]) was 127.1%. The “% DAMGO + BFNA” value (mu opiate receptor (MOR); [8]) was 577.7%, the “% DAMGO (1 μM)” value (mu opiate receptor (MOR); [9]) was 130.0% and the “MOR agonist activity, percent” value (mu opiate receptor (MOR); [10]) was 328.9%.

In the case of `CC(=O)c1ccc(S(=O)(=O)N2CCOC23CCNCC3)cc1` [Compound C0046], the inhibition at 0.01 µM [1, 2] is reported as 30.8%, the inhibition at 0.1 µM [1, 3] is reported as 35.7% and the inhibition at 1 µM [1, 4] is reported as 42.2%. For the same compound, the “% DAMGO (0.1 μM)” value (mu opiate receptor (MOR); [5]) was 197.4%, the “MOR agonist activity, percent” value (mu opiate receptor (MOR); [6]) was 286.2% and the “MOR agonist activity, percent” value (mu opiate receptor (MOR); [7]) was 156.8%. The “% DAMGO + BFNA” value (mu opiate receptor (MOR); [8]) was 356.4%, the “% DAMGO (1 μM)” value (mu opiate receptor (MOR); [9]) was 211.5% and the “MOR agonist activity, percent” value (mu opiate receptor (MOR); [10]) was 492.9%.

For `C=CCN1CCC2(CC1)OCCN2S(=O)(=O)c1ccc(C)cc1` [Compound 10], the “Binding to FLNA (conclusion in words)” value ([1]; preliminary study) was “bind well to FLNA”, the “MOR agonist activity, FLNA-Binding Compound as Agonist 0.1 μM (preliminary study)” value (mu opiate receptor (MOR); 0.1 μM, average of two runs) was 163.1% and the “MOR agonist activity, FLNA-Binding Compound as Agonist 1 μM + βNFA (preliminary study)” value (mu opiate receptor (MOR); 1 μM + βNFA, average of two runs) was 60.4%. The “MOR agonist activity, FLNA-Binding Compound as Agonist 1 μM (preliminary study)” value (mu opiate receptor (MOR); 1 μM, average of two runs) was 191.8% and the “MOR agonist activity (conclusion in words)” value (mu opiate receptor (MOR); preliminary study) was “MOR agonists”.

`O=S(=O)(c1ccc(Br)cc1Br)N1CCC2(CC1)OCCN2S(=O)(=O)c1ccc(Br)cc1Br` [Compound C0070] was tested, and the inhibition at 0.01 µM [1, 2] was 42.6%, the inhibition at 0.1 µM [1, 3] was 50.6% and the inhibition at 1 µM [1, 4] was 53.6%. For the same compound, the “% DAMGO (0.1 μM)” value (mu opiate receptor (MOR); Series C-1, 0.1 μM compound, relative to DAMGO) was 96.2%, the “Concentration of FLNA-Binding Compound as Agonist 0.1 μM” value (mu opiate receptor (MOR); Series C-1, 0.1 μM compound, [35S]GTPγS binding to Gαo, striatal membranes) was 165.6% and the “Concentration of FLNA-Binding Compound as Agonist 1 μM + BFNA” value (mu opiate receptor (MOR); Series C-1, 1 μM compound + 1 μM β-FNA) was 114.2%. The “% DAMGO + BFNA” value (mu opiate receptor (MOR); Series C-1, 1 μM compound + β-FNA, relative to DAMGO + BFNA) was 331.0%, the “% DAMGO (1 μM)” value (mu opiate receptor (MOR); Series C-1, 1 μM compound, relative to DAMGO) was 95.9% and the “Concentration of FLNA-Binding Compound as Agonist 1 μM” value (mu opiate receptor (MOR); Series C-1, 1 μM compound, [35S]GTPγS binding to Gαo, striatal membranes) was 210.8%.

For `CCCCN1CCC2(CC1)OCCN2S(=O)(=O)c1ccc(OC)cc1` [Compound C0102M], the inhibition at 0.01 µM [1, 2] was 52.3%, the inhibition at 0.1 µM [1, 3] was 53.1% and the inhibition at 1 µM [1, 4] was 56.6%. The “% DAMGO (0.1 μM)” value (mu opiate receptor (MOR); [5]) was 78.6%, the “MOR agonist activity, percent” value (mu opiate receptor (MOR); [6]) was 131.8% and the “MOR agonist activity, percent” value (mu opiate receptor (MOR); [7]) was 150.4%. The “% DAMGO + BFNA” value (mu opiate receptor (MOR); [8]) was 316.6%, the “% DAMGO (1 μM)” value (mu opiate receptor (MOR); [9]) was 122.4% and the “MOR agonist activity, percent” value (mu opiate receptor (MOR); [10]) was 272.0%.

In the case of `COc1ccc(C(=O)CC2c3c(cc4c(c3OC)OCO4)CC[N+]2(C)C)c(O)c1` (centres unmarked) [Compound B0033], the inhibition at 0.01 µM [1, 11] is reported as 42.1%, the inhibition at 0.1 µM [1, 12] is reported as 46.8% and the inhibition at 1 µM [1, 13] is reported as 49.4%. For the same compound, the “% DAMGO (0.1 μM)” value (mu opiate receptor (MOR); [14]) was 77.6%, the “MOR agonist activity, percent” value (mu opiate receptor (MOR); [15]) was 149.3% and the “MOR agonist activity, percent” value (mu opiate receptor (MOR); [16]) was 41.9%. For the same compound, the “% DAMGO + BFNA” value (mu opiate receptor (MOR); [17]) was 95.4%, the “% DAMGO (1 μM)” value (mu opiate receptor (MOR); [18]) was 69.2% and the “MOR agonist activity, percent” value (mu opiate receptor (MOR); [19]) was 188.9%.

In the case of `COc1ccc(CCC(O)CC2c3c(cc4c(c3OC)OCO4)CC[N+]2(C)C)cc1` (centres unmarked) [Compound B0049], the inhibition at 0.01 µM [1, 11] is reported as 32.2%, the inhibition at 0.1 µM [1, 12] is reported as 40.1% and the inhibition at 1 µM [1, 13] is reported as 47.1%. For the same compound, the “% DAMGO (0.1 μM)” value (mu opiate receptor (MOR); [14]) was 102.8%, the “MOR agonist activity, percent” value (mu opiate receptor (MOR); [15]) was 181.6% and the “MOR agonist activity, percent” value (mu opiate receptor (MOR); [16]) was 133.2%. For the same compound, the “% DAMGO + BFNA” value (mu opiate receptor (MOR); [17]) was 506.5%, the “% DAMGO (1 μM)” value (mu opiate receptor (MOR); [18]) was 143.1% and the “MOR agonist activity, percent” value (mu opiate receptor (MOR); [19]) was 364.0%.

Work on `CC1CCC(C(C)C)C(OCC(O)CN2CCCCCCC2)C1` (centres unmarked) [Compound A0014] yielded an inhibition at 0.01 µM [1, 2] of 33.8%, an inhibition at 0.1 µM [1, 3] of 39.7% and an inhibition at 1 µM [1, 4] of 44.7%. For the same compound, the “MOR agonist activity ([35S]GTPγS binding), FLNA-Binding Compound as Agonist 0.1 μM” value (mu opiate receptor (MOR); 0.1 μM compound) was 147.0%, the “% DAMGO (0.1 μM)” value (mu opiate receptor (MOR); 0.1 μM compound relative to DAMGO) was 83.2% and the “MOR agonist activity ([35S]GTPγS binding), FLNA-Binding Compound as Agonist 1 μM” value (mu opiate receptor (MOR); 1 μM compound) was 174.9%. For the same compound, the “MOR agonist activity ([35S]GTPγS binding), FLNA-Binding Compound as Agonist 1 μM + BFNA” value (mu opiate receptor (MOR); 1 μM compound + 1 μM β-funaltrexamine) was 140.8%, the “% DAMGO + BFNA” value (mu opiate receptor (MOR); 1 μM compound + BFNA relative to DAMGO + BFNA) was 214.3% and the “% DAMGO (1 μM)” value (mu opiate receptor (MOR); 1 μM compound relative to DAMGO) was 67.5%.
